Publication PMC4610143 (Journal of biomolecular screening, 2014)
“Also recorded” adds a separate entry of the source.

Key:
PIP5K1C = PIP5K1C (Homo sapiens, UniProt O60331); test: ATP competition studies using the mobility shift assay; format: biochemical; details: read-out: average Ki; two independent ATP competition studies
PIP5K1C and PIP4K2C = details: for PIP5K1C and PIP4K2C; cited from earlier work
DRG neurons = details: cited from earlier work
pain hypersensitivity = details: injected intrathecally, rodent models of chronic pain; listed as UNC3230; cited from earlier work

PIP5K1C, sequence (O60331 whole entry): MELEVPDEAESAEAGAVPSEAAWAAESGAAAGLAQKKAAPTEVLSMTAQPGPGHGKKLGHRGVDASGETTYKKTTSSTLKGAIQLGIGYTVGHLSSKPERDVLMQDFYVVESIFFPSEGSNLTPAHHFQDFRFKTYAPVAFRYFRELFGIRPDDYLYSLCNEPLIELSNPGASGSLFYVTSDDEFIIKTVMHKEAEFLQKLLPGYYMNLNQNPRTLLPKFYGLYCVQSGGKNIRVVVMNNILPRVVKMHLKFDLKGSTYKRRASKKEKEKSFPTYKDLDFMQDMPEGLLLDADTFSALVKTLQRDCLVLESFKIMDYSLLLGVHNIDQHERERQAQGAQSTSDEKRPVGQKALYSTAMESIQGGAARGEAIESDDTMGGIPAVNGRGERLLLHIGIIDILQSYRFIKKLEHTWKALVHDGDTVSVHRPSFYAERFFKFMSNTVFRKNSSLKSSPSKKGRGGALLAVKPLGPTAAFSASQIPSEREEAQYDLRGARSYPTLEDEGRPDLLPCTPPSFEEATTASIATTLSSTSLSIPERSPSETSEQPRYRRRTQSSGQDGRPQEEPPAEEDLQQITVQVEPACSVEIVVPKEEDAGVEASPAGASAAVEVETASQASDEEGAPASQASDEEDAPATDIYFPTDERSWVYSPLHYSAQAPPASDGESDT

SMILES: NC(=O)c1nc(Nc2ccccc2)sc1NC(=O)C1CCCCC1 [Compound 1]
- Ki (PIP5K1C): 23 nM
- selectivity (PIP5K1C and PIP4K2C): highly selective
- effect on PIP2 in DRG neurons (DRG neurons): reduced PIP2
- effect on pain hypersensitivity / nociceptive sensitization (pain hypersensitivity): reduce nociceptive sensitization; also recorded: attenuated pain hypersensitivity
